# Assay results taken from patent US6204282A, “Benzimidazole compounds that are vitronectin receptor antagonists” (Schering Corporation, priority 1999, dated 2001).
# How the values were obtained:
# [1] = target: αllbβ3 receptor (Homo sapiens, UniProt P05106+P08514); experiment: similar competitive assay with purified αllbβ3 receptor and 125I-echistatin (specificity index versus αvβ3); type: binding; conditions: IC50 αllbβ3 / IC50 αvβ3
# Text: The specificity index, which is a measure of the relative binding affinity for αvβ3 versus αllbβ3, may be determined by dividing the IC50 value for αllbβ3by the IC50 value for αvβ3.
# [2] = target: T1, αvβ3 receptor (Homo sapiens, UniProt P05106+P06756); experiment: competition radioligand binding assay, 125I-echistatin to purified αvβ3 receptor; conditions: inhibition of specific binding of 125I-echistatin (0.05 nM), 3 hour incubation at room temperature
# T1 construct: αvβ3 receptor (purified from human placenta); from tissue; host or cells: human placenta
SMILES,SPECIFICITY αIIb β3/αvβ3 (specificity index) [1],IC50 [2]
O=C(N[C@@H](CNC(=O)c1ccc(CN(Cc2nc3ccccc3[nH]2)C(=O)C(F)(F)F)cc1)C(=O)O)OCc1ccccc1 [Example 5-12],87,5.6 nM
CC(=O)N(Cc1cccc(C(=O)NC[C@H](NC(=O)OCc2ccccc2)C(=O)O)c1)Cc1nc2ccccc2[nH]1 [Example 5-8],,~500 nM
CN(C)C(=O)N(Cc1ccc(C(=O)NC[C@H](NC(=O)OCc2ccccc2)C(=O)O)cc1)Cc1nc2ccccc2[nH]1 [Example 5-41],19,2.8 nM
CCCC(=O)N(Cc1ccc(C(=O)NC[C@H](NC(=O)OCc2ccccc2)C(=O)O)cc1)Cc1nc2ccccc2[nH]1 [Example 5-11],70,3.4 nM
O=C(N[C@@H](CNC(=O)c1cccc(CN(Cc2nc3ccccc3[nH]2)C(=O)c2ccc(Cl)cc2)c1)C(=O)O)OCc1ccccc1 [Example 5-7],,~500 nM
COCC(=O)N(Cc1ccc(C(=O)NC[C@H](NC(=O)OCc2ccccc2)C(=O)O)cc1)Cc1nc2ccccc2[nH]1 [Example 5-5],,0.42 nM
O=C(N[C@@H](CNC(=O)c1cccc(CN(Cc2nc3ccccc3[nH]2)C(=O)c2ccc3c(c2)OCO3)c1)C(=O)O)OCc1ccccc1 [Example 5-9],,~500 nM
CC(C)NC(=O)N(Cc1ccc(C(=O)NC[C@H](NC(=O)OCc2ccccc2)C(=O)O)cc1)Cc1nc2ccccc2[nH]1 [Example 5-30],296,2.3 nM
